From PubChem BioAssay AID1963872 (Molecular Pharmacology Branch, DTP, NCI, 2024)
pIC50: −log10 of the molar value.

System: KRAS patient-derived spheroids with HUVEC/MSC, viability
Assay: Anticancer human tumor 519858-162-T-J1-PDC patient-derived colon adenocarcinoma cell line growth inhibition [KRAS2]
Conditions: for pIC50: curve of first compound; for viability, T/C: stronger effect = lower value
How it was run: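 Combination screen of spheroid viability in tumor-cell co-cultures with endothelial (HUVEC) and mesenchymal stem cell stroma. Each agent was tested in half-log dilutions, topping at clinical Cmax or at 10 microM without a known Cmax.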

[1] = second compound 0.1 µM, first compound 0.0001 µM
[2] = second compound 0.1 µM, first compound 0.000316 µM
[3] = second compound 0.1 µM, first compound 0.001 µM
[4] = second compound 0.1 µM, first compound 0.00316 µM
[5] = second compound 0.1 µM, first compound 0.01 µM
[6] = second compound 0.1 µM, first compound 0.0316 µM
[7] = second compound 0.316 µM, first compound 0.0001 µM
[8] = second compound 0.316 µM, first compound 0.000316 µM
[9] = second compound 0.316 µM, first compound 0.001 µM
[10] = second compound 0.316 µM, first compound 0.00316 µM
[11] = second compound 0.316 µM, first compound 0.01 µM
[12] = second compound 0.316 µM, first compound 0.0316 µM
[13] = second compound 1 µM, first compound 0.0001 µM
[14] = second compound 1 µM, first compound 0.000316 µM
[15] = second compound 1 µM, first compound 0.001 µM
[16] = second compound 1 µM, first compound 0.00316 µM
[17] = second compound 1 µM, first compound 0.01 µM
[18] = second compound 1 µM, first compound 0.0316 µM
[19] = second compound 3.16 µM, first compound 0.0001 µM
[20] = second compound 3.16 µM, first compound 0.000316 µM
[21] = second compound 3.16 µM, first compound 0.001 µM
[22] = second compound 3.16 µM, first compound 0.00316 µM
[23] = second compound 3.16 µM, first compound 0.01 µM
[24] = second compound 3.16 µM, first compound 0.0316 µM
[25] = second compound 0.1 µM, first compound 0.1 µM
[26] = second compound 0.316 µM, first compound 0.1 µM
[27] = second compound 1 µM, first compound 0.1 µM
[28] = second compound 3.16 µM, first compound 0.1 µM
[29] = second compound 10 µM, first compound 0.000316 µM
[30] = second compound 10 µM, first compound 0.001 µM
[31] = second compound 10 µM, first compound 0.00316 µM
[32] = second compound 10 µM, first compound 0.01 µM
[33] = second compound 10 µM, first compound 0.0316 µM
[34] = second compound 10 µM, first compound 0.1 µM
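Note: compound exposure lasted seven days before readout.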
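Throughout, for viability, T/C: 100% = DMSO vehicle control viability.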

SMILES | pIC50 (second compound 0.1 µM) | pIC50 (second compound 0.316 µM) | pIC50 (second compound 1 µM) | pIC50 (second compound 3.16 µM) | viability, T/C [2] [%] | viability, T/C [3] [%] | viability, T/C [4] [%] | viability, T/C [5] [%] | viability, T/C [6] [%] | viability, T/C [8] [%] | viability, T/C [9] [%] | viability, T/C [10] [%] | viability, T/C [11] [%] | viability, T/C [12] [%] | viability, T/C [14] [%] | viability, T/C [15] [%] | viability, T/C [16] [%] | viability, T/C [17] [%] | viability, T/C [18] [%] | viability, T/C [20] [%] | further results
CC(=O)Nc1cccc(-n2c(=O)n(C3CC3)c(=O)c3c(Nc4ccc(I)cc4F)n(C)c(=O)c(C)c32)c1 + C=CC(=O)N1CCN(c2nc(OCC3CCCN3C)nc3c2CCN(c2cccc4cccc(C)c24)C3)CC1CC#N | 8.22 | 8.35 | 9.24 | 9.10 | 62.1 | 75.4 | 63.7 | 38.5 | 14.6 | 64 | 82.4 | 58.1 | 28.2 | 17.5 | 42.1 | 49.9 | 40 | 31 | 11.4 | 59.1 | pIC50 (second compound 0.0316 µM): 8.45; viability, T/C (second compound 0.0316 µM, first compound 0.0001 µM): 90.6%; viability, T/C (second compound 0.0316 µM, first compound 0.000316 µM): 76%; viability, T/C (second compound 0.0316 µM, first compound 0.001 µM): 65.5%; viability, T/C (second compound 0.0316 µM, first compound 0.00316 µM): 57.8%; viability, T/C (second compound 0.0316 µM, first compound 0.01 µM): 29.8%; viability, T/C (second compound 0.0316 µM, first compound 0.0316 µM): 19.4%; viability, T/C [1]: 59.7%; viability, T/C [7]: 80%; viability, T/C [13]: 63.1%; viability, T/C [19]: 73.5%; viability, T/C [21]: 41%; viability, T/C [22]: 44%; viability, T/C [23]: 16.7%; viability, T/C [24]: 7.17%
CCNC(=O)CC1N=C(c2ccc(Cl)cc2)c2cc(OC)ccc2-n2c(C)nnc21 (configuration not stated) | – | – | – | – | – | – | – | – | – | – | – | – | – | – | – | – | – | – | – | – | viability, T/C (compound 1 µM): 52.7% [middle of 5 runs]; IC50 (curve of compound): 1.08 µM [middle of 4 runs]
CN(C)C/C=C/C(=O)Nc1cc2c(Nc3ccc(F)c(Cl)c3)ncnc2cc1O[C@H]1CCOC1 + CC1OCC2(CCN(c3cnc(Sc4ccnc(N)c4Cl)c(N)n3)CC2)C1N | < 7.00 | 7.71 | < 7.00 | 8.35 | 76.6 | 77.2 | 68 | 93.6 | 70.3 | 78.1 | 75 | 85.8 | 53.3 | 55.1 | 74.4 | 74.1 | 78.8 | 71.2 | 90.8 | 53.6 | pIC50 (second compound 10 µM): 7.24; viability, T/C [25]: 64.3%; viability, T/C [26]: 40.4%; viability, T/C [27]: 67.4%; viability, T/C [21]: 55.6%; viability, T/C [22]: 38.9%; viability, T/C [23]: 59.3%; viability, T/C [24]: 39.4%; viability, T/C [28]: 36.8%; viability, T/C [29]: 80%; viability, T/C [30]: 81.7%; viability, T/C [31]: 71.3%; viability, T/C [32]: 72.9%; viability, T/C [33]: 53.3%; viability, T/C [34]: 46.4%
Cn1nccc1Nc1nccc(-c2cc3c(s2)C(C)(C)N(CCN2CCOCC2)C3=O)n1 | – | – | – | – | – | – | – | – | – | – | – | – | – | – | – | – | – | – | – | – | viability, T/C (compound 0.0316 µM): 95.4% [middle of 5 runs]; viability, T/C (compound 0.1 µM): 92.5% [middle of 5 runs]; viability, T/C (compound 0.316 µM): 87.5% [middle of 5 runs]; viability, T/C (compound 1 µM): 69.5% [middle of 5 runs]; viability, T/C (compound 10 µM): 31.8% [middle of 5 runs]
CC(=O)Nc1cccc(-n2c(=O)n(C3CC3)c(=O)c3c(Nc4ccc(I)cc4F)n(C)c(=O)c(C)c32)c1 + COc1cc2nc(C)nc(NC(C)c3cc(N)cc(C(F)(F)F)c3)c2cc1OC1CCOC1 | 8.61 | 8.70 | 9.00 | 9.56 | 74.2 | 65 | 39.6 | 36.1 | 12.5 | 85.2 | 73.8 | 34.7 | 24.2 | 13.8 | 59.3 | 53.1 | 33.6 | 18.5 | 11 | 46.3 | pIC50 (second compound 10 µM): 9.69; viability, T/C [1]: 83.3%; viability, T/C [7]: 64.8%; viability, T/C [13]: 72.2%; viability, T/C [19]: 67.8%; viability, T/C [21]: 30.6%; viability, T/C [22]: 27.7%; viability, T/C [23]: 11.9%; viability, T/C [24]: 8.2%; viability, T/C (second compound 10 µM, first compound 0.0001 µM): 69.2%; viability, T/C [29]: 32.2%; viability, T/C [30]: 31.9%; viability, T/C [31]: 6.2%; viability, T/C [32]: 4.93%; viability, T/C [33]: 3.59%
Cn1ncnc1[C@H]1c2n[nH]c(=O)c3cc(F)cc(c23)N[C@@H]1c1ccc(F)cc1 + CNCc1ccccc1-c1csc(C(C)Nc2nc(C)nc3cc(OC)c(OC)cc23)c1 | < 7.00 | < 7.00 | < 7.00 | 7.15 | 82.2 | 95.5 | 96.5 | 71.5 | 95.4 | 86.3 | 94.7 | 101 | 112 | 103 | 72 | 98.8 | 97.7 | 63.9 | 78.3 | 49.7 | pIC50 (second compound 10 µM): > 9.50; viability, T/C [25]: 98.6%; viability, T/C [26]: 89.7%; viability, T/C [27]: 102%; viability, T/C [21]: 58.7%; viability, T/C [22]: 73.8%; viability, T/C [23]: 56.7%; viability, T/C [24]: 54.2%; viability, T/C [28]: 48.3%; viability, T/C [29]: 0.66%; viability, T/C [30]: 0.41%; viability, T/C [31]: 0.4%; viability, T/C [32]: 1.18%; viability, T/C [33]: 0.36%; viability, T/C [34]: 0.51%
